# In PubChem BioAssay AID190 (DTP/NCI, 2004):
# Where “and” joins values, the source holds several entries; their conditions need not be identical. Equal entries are not always repeated. Inconclusive results and toxic doses are left out.
# Tested on: AKR/Lw mice, AKR lymphoma ip, median survival T/C
# Assay: NCI In Vivo Anticancer Drug Screen. Data for tumor model Lymphoma AKR (Transplanted) (intraperitoneal) in AKR/Lw mice
# Settings: endpoint: median survival time, higher = longer survival
# Experimental: The antitumor activity of compounds was measured in mice bearing transplantable tumors. Survival or tumor size were measured and the results are expressed as the measurement made in the treated group (T) divided by the measurement made in the vehicle treated control group (C). The tumor model used in this assay is Lymphoma AKR (Transplanted) (intraperitoneal) in AKR/Lw mice
# [1] = dose: 25.0 mg/kg/injection, schedule: Q01DX001 (ip), vehicle: saline
# [2] = dose: 37.5 mg/kg/injection, schedule: Q01DX009 (ip), vehicle: saline
# [3] = dose: 50.0 mg/kg/injection, schedule: Q01DX009 (ip), vehicle: Klucel (hydroxypropylcellulose) (HPC)
# [4] = dose: 50.0 mg/kg/injection, schedule: Q01DX009 (ip), vehicle: saline
# [5] = dose: 75.0 mg/kg/injection, schedule: Q01DX009 (ip), vehicle: saline
# [6] = dose: 100.0 mg/kg/injection, schedule: Q01DX001 (ip), vehicle: Klucel (hydroxypropylcellulose) (HPC)
# [7] = dose: 100.0 mg/kg/injection, schedule: Q01DX001 (ip), vehicle: saline
# [8] = dose: 100.0 mg/kg/injection, schedule: Q01DX009 (ip), vehicle: Klucel (hydroxypropylcellulose) (HPC)
# [9] = dose: 100.0 mg/kg/injection, schedule: Q01DX009 (ip), vehicle: saline
# [10] = dose: 100.0 mg/kg/injection, schedule: Q04DX003 (ip), vehicle: saline
# [11] = dose: 150.0 mg/kg/injection, schedule: Q01DX001 (ip), vehicle: Klucel (hydroxypropylcellulose) (HPC)
# [12] = dose: 150.0 mg/kg/injection, schedule: Q01DX009 (ip), vehicle: saline
# [13] = dose: 200.0 mg/kg/injection, schedule: Q01DX001 (ip), vehicle: Klucel (hydroxypropylcellulose) (HPC)
# [14] = dose: 200.0 mg/kg/injection, schedule: Q01DX001 (ip), vehicle: saline
# [15] = dose: 200.0 mg/kg/injection, schedule: Q04DX003 (ip), vehicle: Klucel (hydroxypropylcellulose) (HPC)
# [16] = dose: 200.0 mg/kg/injection, schedule: Q04DX003 (ip), vehicle: saline
# [17] = dose: 400.0 mg/kg/injection, schedule: Q01DX001 (ip), vehicle: Klucel (hydroxypropylcellulose) (HPC)
# [18] = dose: 400.0 mg/kg/injection, schedule: Q01DX001 (ip), vehicle: saline
# [19] = dose: 100.0 mg/kg/injection, schedule: Q04DX003 (ip), vehicle: Klucel (hydroxypropylcellulose) (HPC)
# [20] = dose: 400.0 mg/kg/injection, schedule: Q04DX003 (ip), vehicle: Klucel (hydroxypropylcellulose) (HPC)
compound,measurement,setting,value
CC(=O)NNC(=O)c1ccccn1,T/C,"dose: 3.1 mg/kg/injection, schedule: Q04DX003 (ip), vehicle: Klucel (hydroxypropylcellulose) (HPC)",92 % of control
same,T/C,"dose: 6.2 mg/kg/injection, schedule: Q01DX009 (ip), vehicle: Klucel (hydroxypropylcellulose) (HPC)",100 % of control
same,T/C,"dose: 6.2 mg/kg/injection, schedule: Q04DX003 (ip), vehicle: Klucel (hydroxypropylcellulose) (HPC)",88 % of control and 102 % of control
same,T/C,"dose: 12.5 mg/kg/injection, schedule: Q01DX009 (ip), vehicle: Klucel (hydroxypropylcellulose) (HPC)",112 % of control and 120 % of control
same,T/C,"dose: 12.5 mg/kg/injection, schedule: Q04DX003 (ip), vehicle: Klucel (hydroxypropylcellulose) (HPC)",89 % of control and 96 % of control
same,T/C,[1],97 % of control and 108 % of control
same,T/C,"dose: 25.0 mg/kg/injection, schedule: Q01DX009 (ip), vehicle: Klucel (hydroxypropylcellulose) (HPC)",109 % of control and 114 % of control
same,T/C,"dose: 25.0 mg/kg/injection, schedule: Q01DX009 (ip), vehicle: saline",87 % of control and 91 % of control
same,T/C,"dose: 25.0 mg/kg/injection, schedule: Q04DX003 (ip), vehicle: Klucel (hydroxypropylcellulose) (HPC)",97 % of control and 105 % of control and 112 % of control
same,T/C,"dose: 31.25 mg/kg/injection, schedule: Q01DX001 (ip), vehicle: Klucel (hydroxypropylcellulose) (HPC)",94 % of control
same,T/C,[2],98 % of control
same,T/C,"dose: 50.0 mg/kg/injection, schedule: Q01DX001 (ip), vehicle: Klucel (hydroxypropylcellulose) (HPC)",92 % of control
same,T/C,"dose: 50.0 mg/kg/injection, schedule: Q01DX001 (ip), vehicle: saline",95 % of control and 107 % of control
same,T/C,[3],120 % of control
same,T/C,[4],101 % of control and 104 % of control
same,T/C,"dose: 50.0 mg/kg/injection, schedule: Q04DX003 (ip), vehicle: Klucel (hydroxypropylcellulose) (HPC)",104 % of control and 109 % of control and 110 % of control
same,T/C,"dose: 62.5 mg/kg/injection, schedule: Q01DX001 (ip), vehicle: Klucel (hydroxypropylcellulose) (HPC)",94 % of control
same,T/C,[5],96 % of control
same,T/C,[6],114 % of control
same,T/C,[7],102 % of control and 115 % of control and 116 % of control
same,T/C,[8],123 % of control
same,T/C,[9],107 % of control
same,T/C,"dose: 100.0 mg/kg/injection, schedule: Q04DX003 (ip), vehicle: other",117 % of control and 123 % of control
same,T/C,[10],116 % of control
same,T/C,[11],94 % of control
same,T/C,[12],105 % of control
same,T/C,[13],95 % of control
same,T/C,[14],97 % of control and 107 % of control
same,T/C,[15],87 % of control and 94 % of control
same,T/C,"dose: 200.0 mg/kg/injection, schedule: Q04DX003 (ip), vehicle: other",107 % of control
same,T/C,[16],116 % of control
same,T/C,"dose: 250.0 mg/kg/injection, schedule: Q01DX001 (ip), vehicle: Klucel (hydroxypropylcellulose) (HPC)",107 % of control
same,T/C,[17],100 % of control
CCOC(=O)/C(C(C)=O)=C(/O)c1ccc(OC(F)(F)C(F)Cl)cc1OC(F)(F)C(F)Cl.CCOC(=O)/C(C(C)=O)=C(/O)c1ccc(OC(F)(F)C(F)Cl)cc1OC(F)(F)C(F)Cl.[Cu] (configuration not stated),T/C,[6],100 % of control
same,T/C,[13],90 % of control
CN(C)CCCNC(=O)Nc1ccccc1,T/C,[6],103 % of control
same,T/C,[13],93 % of control
OCC#CC#CCO,T/C,[7],100 % of control
same,T/C,[14],92 % of control
CC1NC1(c1ccccc1)[n+]1ccccc1 (configuration not stated),T/C,[14],100 % of control
CC(=O)N(C(C)=O)c1ccc(C)cc1,T/C,[7],93 % of control
same,T/C,[14],104 % of control
same,T/C,[18],104 % of control
COC(=O)CC(=O)c1ccc(C)cc1,T/C,[6],100 % of control
same,T/C,[13],103 % of control
same,T/C,[17],120 % of control
Nc1nc(N)nc(N)n1,T/C,[19],97 % of control
same,T/C,[15],108 % of control
same,T/C,[20],86 % of control
same,T/C,"dose: 800.0 mg/kg/injection, schedule: Q04DX003 (ip), vehicle: Klucel (hydroxypropylcellulose) (HPC)",105 % of control
S=c1nc[nH]c2nc[nH]c12,T/C,"dose: 6.25 mg/kg/injection, schedule: Q01DX015 (ip), vehicle: Klucel (hydroxypropylcellulose) (HPC)",110 % of control
same,T/C,"dose: 10.0 mg/kg/injection, schedule: Q01DX009 (ip), vehicle: saline",94 % of control
same,T/C,"dose: 12.5 mg/kg/injection, schedule: Q01DX015 (ip), vehicle: Klucel (hydroxypropylcellulose) (HPC)",100 % of control
same,T/C,"dose: 20.0 mg/kg/injection, schedule: Q01DX009 (ip), vehicle: saline",94 % of control and 102 % of control and 105 % of control
same,T/C,"dose: 25.0 mg/kg/injection, schedule: Q01DX015 (ip), vehicle: Klucel (hydroxypropylcellulose) (HPC)",100 % of control
same,T/C,"dose: 30.0 mg/kg/injection, schedule: Q01DX001 (ip), vehicle: saline",104 % of control and 109 % of control and 112 % of control
same,T/C,"dose: 30.0 mg/kg/injection, schedule: Q01DX009 (ip), vehicle: saline",100 % of control
same,T/C,"dose: 30.0 mg/kg/injection, schedule: Q04DX003 (ip), vehicle: saline",102 % of control
same,T/C,[2],104 % of control
same,T/C,"dose: 40.0 mg/kg/injection, schedule: Q01DX009 (ip), vehicle: saline",94 % of control and 97 % of control and 113 % of control
same,T/C,[3],100 % of control
same,T/C,[4],120 % of control
same,T/C,"dose: 50.0 mg/kg/injection, schedule: Q01DX015 (ip), vehicle: Klucel (hydroxypropylcellulose) (HPC)",92 % of control and 93 % of control
same,T/C,"dose: 50.0 mg/kg/injection, schedule: Q04DX003 (ip), vehicle: saline",100 % of control
same,T/C,"dose: 60.0 mg/kg/injection, schedule: Q01DX001 (ip), vehicle: saline",97 % of control and 111 % of control and 113 % of control
same,T/C,"dose: 60.0 mg/kg/injection, schedule: Q01DX009 (ip), vehicle: saline",96 % of control
same,T/C,"dose: 60.0 mg/kg/injection, schedule: Q04DX003 (ip), vehicle: saline",119 % of control
same,T/C,"dose: 75.0 mg/kg/injection, schedule: Q01DX001 (ip), vehicle: saline",113 % of control
same,T/C,[5],109 % of control
same,T/C,"dose: 80.0 mg/kg/injection, schedule: Q01DX009 (ip), vehicle: saline",94 % of control and 123 % of control
same,T/C,[6],96 % of control
same,T/C,[8],90 % of control
same,T/C,[9],93 % of control
same,T/C,[19],97 % of control and 100 % of control and 108 % of control
same,T/C,[10],102 % of control and 123 % of control
same,T/C,"dose: 120.0 mg/kg/injection, schedule: Q01DX001 (ip), vehicle: saline",93 % of control and 104 % of control and 222 % of control
same,T/C,"dose: 120.0 mg/kg/injection, schedule: Q04DX003 (ip), vehicle: saline",100 % of control
same,T/C,[11],102 % of control and 112 % of control
same,T/C,[12],100 % of control
same,T/C,"dose: 175.0 mg/kg/injection, schedule: Q01DX001 (ip), vehicle: Klucel (hydroxypropylcellulose) (HPC)",100 % of control
same,T/C,[14],104 % of control
same,T/C,"dose: 200.0 mg/kg/injection, schedule: Q01DX009 (ip), vehicle: saline",110 % of control
same,T/C,[15],90 % of control
same,T/C,[16],90 % of control
same,T/C,"dose: 300.0 mg/kg/injection, schedule: Q01DX001 (ip), vehicle: Klucel (hydroxypropylcellulose) (HPC)",106 % of control
same,T/C,"dose: 300.0 mg/kg/injection, schedule: Q01DX001 (ip), vehicle: saline",119 % of control
same,T/C,[17],113 % of control
same,T/C,[18],102 % of control
same,T/C,[20],121 % of control
same,T/C,"dose: 600.0 mg/kg/injection, schedule: Q01DX001 (ip), vehicle: Klucel (hydroxypropylcellulose) (HPC)",115 % of control
CC(=O)CC(=O)c1ccccc1,T/C,[6],106 % of control
same,T/C,[13],106 % of control
same,T/C,[17],103 % of control
COc1ccc(COC(=O)CN2C(=O)c3ccccc3C2=O)cc1,T/C,[6],97 % of control
same,T/C,[13],100 % of control
same,T/C,[17],113 % of control
OC1(C#CC2(O)c3ccccc3-c3ccccc32)c2ccccc2-c2ccccc21,T/C,[6],105 % of control
same,T/C,[13],108 % of control
same,T/C,[17],102 % of control
CN(C)CCCc1c2ccccc2nc2ccc(Cl)cc12,T/C,"dose: 6.0 mg/kg/injection, schedule: Q01DX001 (ip), vehicle: saline",100 % of control
same,T/C,"dose: 12.0 mg/kg/injection, schedule: Q01DX001 (ip), vehicle: saline",103 % of control
same,T/C,[1],109 % of control
O=NN(CCCl)C(=O)N[C@H]1CCCC[C@@H]1Cl,T/C,"dose: 5.0 mg/kg/injection, schedule: Q04DX004 (ip), vehicle: Klucel (hydroxypropylcellulose) (HPC)",123 % of control
same,T/C,"dose: 5.0 mg/kg/injection, schedule: Q04DX004 (ip), vehicle: saline",117 % of control
same,T/C,"dose: 20.0 mg/kg/injection, schedule: Q04DX004 (ip), vehicle: Klucel (hydroxypropylcellulose) (HPC)",97 % of control
NC(Cc1ccc([N+](=O)[O-])cc1)C(=O)O (configuration not stated),T/C,[7],94 % of control
same,T/C,[14],96 % of control
